Measurements reported in patent publication US4605674A, “Substituted acetophenones and compositions containing them” (Hoffmann-La Roche Inc., priority 1979, dated 1986).
Values after ≈ are worked out from the molar mass of the structure shown. Where two headings read alike, the source gives them in different places.

Columns and labels:
[1] = system: rhinovirus HGP; assay: Inhibition of viral cytopathogenic effect (c.p.e.) of rhinovirus HGP in HeLa cells; format: cell-based, human rhinoviruses; settings: Enterovirus, 48 h, read-out: IC50 against rhinovirus HGP (concentration inhibiting the viral c.p.e. by 50%)
Experimental: A suspension of HeLa cells (6×10^4) was mixed with rhinovirus HGP (3×10^3 plaque forming units, PFU) and was plated in a microtest plate containing the compounds to be tested serially diluted. The cells were then cultured with Eagle's minimum essential medium containing 2% calf serum, 1% tryptose phosphate broth, 100 μg/ml of streptomycin sulfate and 20 unit/ml of penicillin G. Viral c.p.e. (cytopathogenic effect) was observed by a microscope after 2 days culture at 33° C.
The antiviral activity of the tested compounds is expressed by the concentration inhibiting the viral c.p.e. by 50% when compared to the control culture (IC50).

[2] = in vivo; settings: mouse, DDY mice, single dose
Experimental: ^(1) DDY mice weighing 15-20 g were treated with a single dose of the
compound. Survivors were recorded on day 21.
^(2) Compounds were dissolved in dimethylsulfoxide.
^(3) Compounds were suspended with solution of 0.5% carboxymethyl

[3] = HeLa cells, 2 days culture at 33° C.
[4] = ip, i.p., dissolved in dimethylsulfoxide, day 21, read-out: LD50 i.p.
[5] = po, p.o., suspended in 0.5% carboxymethyl cellulose, day 21, read-out: LD50 p.o.

Row | SMILES | IC50 [1, 3] [mg/L] | IC50 ([1]; HeLa) [mg/L] | LD50 at 504 h [2, 4] [mg/kg] | LD50 at 504 h [2, 5] [mg/kg]
1 | COc1cc(O)c(C(=O)/C=C/c2ccc(O)c(OC)c2)c(OC)c1 [2',4-dihydroxy-3,4',6'-trimethoxychalcone] | 0.3 to 1 (≈ 0.908 to 3.03 µM) | – | – | –
2 | CCCOc1ccc(/C=C/C(=O)c2c(OC)cc(OC)cc2OC(=O)CC)cc1 [2',4'-dimethoxy-6'-(propionyloxy)-4-propoxychalcone] | – | 0.1 to 0.3 (≈ 0.251 to 0.753 µM) | > 1000 | > 5000
3 | CCOc1ccc(/C=C/C(=O)c2c(OCC)cc(OCC)cc2OC(=O)CC)cc1 [2',4,4'-triethoxy-6'-(propionyloxy)-chalcone] | – | 0.1 to 0.3 (≈ 0.242 to 0.727 µM) | > 1000 | > 5000
4 | COc1ccc(/C=C/C(=O)c2c(OC)cc(OC)cc2OC(=O)c2cccnc2)cc1 [2',4,4'-trimethoxy-6'-(nicotinoyloxy)chalcone] | – | 0.01 to 0.025 (≈ 0.0238 to 0.0596 µM) | > 500 | > 4000
5 | CCOc1ccc(/C=C/C(=O)c2c(O)cc(OCC)cc2OC)cc1 [4,4'-diethoxy-2'-hydroxy-6'-methoxychalcone] | – | 0.006 to 0.02 (≈ 0.0175 to 0.0584 µM) | > 500 | > 1000
6 | CCOc1cc(O)c(C(=O)C=Cc2ccc(C)o2)c(OCC)c1 [2',4'-diethoxy-6'-hydroxy-3-(5-methyl-2-furyl)-acrylophenone] | – | 0.04 to 0.12 (≈ 0.126 to 0.379 µM) | > 500 | > 1000
7 | COc1cc(O)c(C(=O)C=Cc2cccnc2)c(OC)c1 [2'-hydroxy-4',6'-dimethoxy-3-(3-pyridyl)-acrylophenone] | 0.6 (≈ 2.1 µM) | – | – | –
8 | CCC(=O)Oc1cc(OC)cc(OC)c1C(=O)/C=C/c1ccccc1 [2',4'-dimethoxy-6'-(propionyloxy)-chalcone] | – | 0.3 to 1 (≈ 0.881 to 2.94 µM) | > 1000 | > 5000
9 | COc1cc(O)c(C(=O)/C=C/c2cccc(OC)c2O)c(OC)c1 [2,2'-dihydroxy-3,4',6'-trimethoxychalcone] | – | 0.15 to 0.5 (≈ 0.454 to 1.51 µM) | > 500 | > 1000
10 | COc1ccc(/C=C/C(=O)c2c(O)cc(OC)cc2OC)c(OC)c1 [2'-hydroxy-2,4,4',6'-tetramethoxychalcone] | – | 0.1 (≈ 0.29 µM) | > 500 | > 1000
11 | CCN(CC)c1ccc(/C=C/C(=O)c2c(O)cc(OC)cc2OC)cc1 [4-(diethylamino)-2'-hydroxy-4',6'-dimethoxychalcone] | 0.6 to 2 (≈ 1.69 to 5.63 µM) | – | – | –
12 | COc1cc(O)c(C(=O)C=Cc2ccc3c(c2)OCO3)c(OC)c1 [2'-hydroxy-4',6'-dimethoxy-3,4-(methylenedioxy)-chalcone] | – | 0.02 (≈ 0.0609 µM) | > 1000 | > 5000
13 | CCCOc1ccc(/C=C/C(=O)c2c(O)cc(OC)cc2OC)cc1 [2'-hydroxy-4',6'-dimethoxy-4-propoxychalcone] | – | 0.1 (≈ 0.292 µM) | > 500 | > 5000
14 | COc1ccc(/C=C/C(=O)c2c(OC)cc(OC)cc2OC(=O)c2cnccn2)cc1 [2',4,4'-trimethoxy-6'-(pyrazinylcarbonyloxy)-chalcone] | – | 0.03 to 0.1 (≈ 0.0714 to 0.238 µM) | > 500 | > 4000
15 | CCC(=O)Oc1cc(OC)cc(OC(C)C)c1C(=O)/C=C/c1ccc(OC)cc1 [2'-isopropoxy-4,4'-dimethoxy-6'-(propionyloxy)chalcone] | – | 0.01 to 0.03 (≈ 0.0251 to 0.0753 µM) | > 500 | > 1000
16 | COc1ccc(/C=C/C(=O)c2c(OC)cc(OC)cc2OC(=O)[C@H](C)N)cc1 [2'-(L-alanyloxy)-4,4',6'-trimethoxychalcone] | – | 0.03 to 0.1 (≈ 0.0778 to 0.259 µM) | > 180 | > 1000
17 | COc1ccc(/C=C/C(=O)c2ccc(OC)cc2O)cc1 [2'-hydroxy-4,4'-dimethoxychalcone] | – | 0.3 to 1 (≈ 1.06 to 3.52 µM) | > 1000 | > 2500
18 | CCOc1ccc(/C=C/C(=O)c2c(OC)cc(OC)cc2OC(=O)CC)cc1 [4-ethoxy-2',4'-dimethoxy-6'-(propionyloxy)-chalcone] | – | 0.03 to 0.1 (≈ 0.078 to 0.26 µM) | > 1000 | > 5000
19 | CCCOc1cc(OC)cc(O)c1C(=O)/C=C/c1ccc(OC)cc1 [2'-hydroxy-4,4'-dimethoxy-6'-propoxychalcone] | – | 0.06 (≈ 0.175 µM) | > 500 | > 1500
20 | COc1ccc(/C=C/C(=O)c2c(OC)cc(OC)cc2OC(=O)C(C)(C)C)cc1 [2',4,4'-trimethoxy-6'-(pivaloyloxy)-chalcone] | – | 0.01 to 0.03 (≈ 0.0251 to 0.0753 µM) | > 1000 | > 5000
21 | COc1cc(O)c(C(=O)/C=C/c2ccc(SC)cc2)c(OC)c1 [2'-hydroxy-4',6'-dimethoxy-4-(methylthio)-chalcone] | – | 0.03 (≈ 0.0908 µM) | > 1000 | > 5000
